Data taken from publication PMC5363571 (Oncotarget, 2016).
Where a name gives a salt, the structure may show the parent alone.

Target: USP7 (Homo sapiens, UniProt Q93009)
Assay: biochemical
Design: Ub-AMC hydrolysis by recombinant USP7 (20 nM), 30 min pre-incubation, fluorescence read-out
Conditions: read-out: % Inhibition at 50 μM

Chain of USP7 (Q93009 whole entry): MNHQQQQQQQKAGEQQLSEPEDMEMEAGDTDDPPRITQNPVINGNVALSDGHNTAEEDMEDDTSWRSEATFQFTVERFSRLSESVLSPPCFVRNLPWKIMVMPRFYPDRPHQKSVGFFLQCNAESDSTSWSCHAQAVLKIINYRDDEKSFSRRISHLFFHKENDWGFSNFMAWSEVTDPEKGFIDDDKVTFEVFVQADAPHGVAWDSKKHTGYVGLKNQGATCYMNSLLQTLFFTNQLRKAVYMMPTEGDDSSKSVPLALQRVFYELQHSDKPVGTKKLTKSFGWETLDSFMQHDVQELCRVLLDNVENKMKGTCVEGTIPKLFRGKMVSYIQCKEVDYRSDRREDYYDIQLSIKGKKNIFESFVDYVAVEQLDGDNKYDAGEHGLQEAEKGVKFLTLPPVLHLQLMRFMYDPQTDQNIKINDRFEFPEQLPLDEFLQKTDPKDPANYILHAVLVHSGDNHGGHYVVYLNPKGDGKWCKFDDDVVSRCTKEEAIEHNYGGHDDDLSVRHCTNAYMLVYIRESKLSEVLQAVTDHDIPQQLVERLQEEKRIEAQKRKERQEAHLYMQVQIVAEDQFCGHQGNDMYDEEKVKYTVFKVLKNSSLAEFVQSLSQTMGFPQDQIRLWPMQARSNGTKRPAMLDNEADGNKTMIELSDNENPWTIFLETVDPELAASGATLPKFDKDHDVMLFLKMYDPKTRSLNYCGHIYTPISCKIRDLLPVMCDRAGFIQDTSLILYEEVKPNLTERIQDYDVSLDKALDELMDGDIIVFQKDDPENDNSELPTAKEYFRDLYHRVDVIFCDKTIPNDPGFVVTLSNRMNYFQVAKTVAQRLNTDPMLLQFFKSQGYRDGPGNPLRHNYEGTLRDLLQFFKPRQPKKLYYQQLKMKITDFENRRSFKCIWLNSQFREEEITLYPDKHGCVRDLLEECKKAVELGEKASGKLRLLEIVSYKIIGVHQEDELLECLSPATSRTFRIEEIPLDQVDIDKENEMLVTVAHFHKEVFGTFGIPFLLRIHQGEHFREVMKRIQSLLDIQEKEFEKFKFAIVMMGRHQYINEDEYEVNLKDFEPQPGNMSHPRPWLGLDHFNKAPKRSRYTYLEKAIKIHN

**Q.** Which inhibition at 50 µM does the source give for `C#C[C@]1(O)CC[C@H]2[C@@H]3CCC4=Cc5oncc5C[C@]4(C)[C@H]3CC[C@@]21C` [Danazol] here?
**A.** < 5%

**Q.** `COc1cccc2c1C(=O)c1c(O)c3c(c(O)c1C2=O)C[C@@](O)(C(C)=O)C[C@@H]3O[C@H]1C[C@H](N)[C@H](O)[C@H](C)O1` [Daunorubicin HCl] was tested. Which inhibition at 50 µM did it give?
**A.** < 5%

**Q.** For `C[N+](C)(C)CCCCCCCCCC[N+](C)(C)C` [Decamethonium 2Br], which inhibition at 50 µM is on record?
**A.** < 5%

**Q.** For `C[C@]12CC[C@H](O)CC1=CC[C@@H]1[C@@H]2CC[C@]2(C)C(=O)CC[C@@H]12` [Dehydroepiandrosterone], which inhibition at 50 µM is on record?
**A.** < 5%

**Q.** Which inhibition at 50 µM does the source give for `CC(C)Nc1cccnc1N1CCN(C(=O)c2cc3cc(NS(C)(=O)=O)ccc3[nH]2)CC1` [Delavirdine mesylate] here?
**A.** < 5%

**Q.** Which inhibition at 50 µM does the source give for `CCCCn1c(=O)c2c(ncn2CC(C)=O)n(CCCC)c1=O` [Denbufylline] here?
**A.** < 5%

**Q.** `C#CCN(C)C(C)Cc1ccccc1` (stereo not shown) [Deprenyl] was tested. Which inhibition at 50 µM did it give?
**A.** < 5%

**Q.** How did the inhibition at 50 µM turn out when `COc1ccc2c(c1)[C@]13CCCC[C@@H]1[C@H](C2)N(C)CC3` [Dextromethorphan HBr] was run?
**A.** 41.3%

**Q.** `O=C(O)Cc1ccccc1Nc1c(Cl)cccc1Cl` [Diclofenac, Na] was tested. Which inhibition at 50 µM did it give?
**A.** < 5%

**Q.** How did the inhibition at 50 µM turn out when `O=c1[nH]cnc2c1ncn2[C@H]1CC[C@@H](CO)O1` [Didanosine] was run?
**A.** < 5%

**Q.** Which inhibition at 50 µM does the source give for `CC/C(=C(/CC)c1ccc(O)cc1)c1ccc(O)cc1` [Diethylstilbestrol] here?
**A.** 30.6%

**Q.** With `O=C(O)c1cc(-c2ccc(F)cc2F)ccc1O` [Diflunisal] as the molecule, how does the inhibition at 50 µM read?
**A.** 31.5%

**Q.** How did the inhibition at 50 µM turn out when `CCCCC[C@H](O)/C=C/[C@@H]1[C@@H](C/C=C\CCCC(=O)O)[C@@H](O)C[C@H]1O` [Dinoprost] was run?
**A.** < 5%

**Q.** With `CCCCC[C@H](O)/C=C/[C@H]1[C@H](O)CC(=O)[C@@H]1C/C=C\CCCC(=O)O` [Dinoprostone] as the molecule, how does the inhibition at 50 µM read?
**A.** 6.5%

**Q.** For `CN(C)CCOC(c1ccccc1)c1ccccc1` [Diphenhydramine HCl], which inhibition at 50 µM is on record?
**A.** < 5%

**Q.** For `CCN(CC)C(=S)SSC(=S)N(CC)CC` [Disulfiram], which inhibition at 50 µM is on record?
**A.** < 5%

**Q.** `CC(CCc1ccc(O)cc1)NCCc1ccc(O)c(O)c1` (stereo not shown) [Dobutamine HCl] was tested. Which inhibition at 50 µM did it give?
**A.** < 5%

**Q.** `CC1=C(C)C(=O)C(CCCCC#CCCCC#CCO)=C(C)C1=O` [Docebenone] was tested. Which inhibition at 50 µM did it give?
**A.** < 5%

**Q.** `CC(=O)O[C@@]12CO[C@@H]1C[C@H](O)[C@@]1(C)C(=O)[C@H](O)C3=C(C)[C@@H](OC(=O)[C@H](O)[C@@H](NC(=O)OC(C)(C)C)c4ccccc4)C[C@@](O)([C@@H](OC(=O)c4ccccc4)[C@H]21)C3(C)C` [Docetaxil] was tested. Which inhibition at 50 µM did it give?
**A.** < 5%

**Q.** How did the inhibition at 50 µM turn out when `CN(CCOc1ccc(NS(C)(=O)=O)cc1)CCc1ccc(NS(C)(=O)=O)cc1` [Dofetilide] was run?
**A.** < 5%

**Q.** Which inhibition at 50 µM does the source give for `O=C(O[C@@H]1C[C@@H]2C[C@H]3C[C@H](C1)N2CC3=O)c1c[nH]c2ccccc12` [Dolasetron] here?
**A.** < 5%

**Q.** Which inhibition at 50 µM does the source give for `O=c1[nH]c2ccccc2n1CCCN1CCC(n2c(=O)[nH]c3cc(Cl)ccc32)CC1` [Domperidone] here?
**A.** < 5%

**Q.** With `COc1cc2c(cc1OC)C(=O)C(CC1CCN(Cc3ccccc3)CC1)C2` (stereo not shown) [Donepezil HCl] as the molecule, how does the inhibition at 50 µM read?
**A.** < 5%

**Q.** `CCN[C@H]1C[C@H](C)S(=O)(=O)c2sc(S(N)(=O)=O)cc21` [Dorzolamide] was tested. Which inhibition at 50 µM did it give?
**A.** < 5%

**Q.** With `COc1cc2nc(N3CCN(C(=O)C4COc5ccccc5O4)CC3)nc(N)c2cc1OC` (stereo not shown) [Doxazosin mesylate] as the molecule, how does the inhibition at 50 µM read?
**A.** < 5%

**Q.** For `C[C@H]1O[C@@H](n2cc(F)c(=O)[nH]c2=O)[C@H](O)[C@@H]1O` [Doxifluridine], which inhibition at 50 µM is on record?
**A.** < 5%

**Q.** How did the inhibition at 50 µM turn out when `Cn1c(=O)c2c(ncn2CC2OCCO2)n(C)c1=O` [Doxofylline] was run?
**A.** < 5%

**Q.** Which inhibition at 50 µM does the source give for `COc1cccc2c1C(=O)c1c(O)c3c(c(O)c1C2=O)C[C@@](O)(C(=O)CO)C[C@@H]3O[C@H]1C[C@H](N)[C@H](O)[C@H](C)O1` [Doxorubicin HCl] here?
**A.** < 5%

**Q.** How did the inhibition at 50 µM turn out when `C[C@H]1c2cccc(O)c2C(=O)C2=C(O)[C@]3(O)C(=O)C(C(N)=O)=C(O)[C@@H](N(C)C)[C@@H]3[C@@H](O)[C@@H]21` [Doxycycline HCl] was run?
**A.** < 5%

**Q.** Which inhibition at 50 µM does the source give for `O=C1Nc2ccc(Cl)cc2[C@@](C#CC2CC2)(C(F)(F)F)O1` [Efavirenz] here?
**A.** 29.8%

**Q.** How did the inhibition at 50 µM turn out when `C[C@H](N[C@@H](CCc1ccccc1)C(=O)O)C(=O)N1CCC[C@H]1C(=O)O` [Enalaprilat] was run?
**A.** < 5%

**Q.** How did the inhibition at 50 µM turn out when `CNC[C@H](O)c1ccc(O)c(O)c1` [Epinephrine-(+)-tartrate l (-)] was run?
**A.** < 5%

**Q.** Which inhibition at 50 µM does the source give for `CCCCc1ncc(/C=C(\Cc2cccs2)C(=O)O)n1Cc1ccc(C(=O)O)cc1` [Eprosartan] here?
**A.** 6.2%

**Q.** Which inhibition at 50 µM does the source give for `C[N+](C)(C)[C@@H](Cc1c[nH]c(=S)[nH]1)C(=O)[O-]` [Ergothioneine] here?
**A.** < 5%

**Q.** `C#Cc1cccc(Nc2ncnc3cc(OCCOC)c(OCCOC)cc23)c1` [Erlotinib] was tested. Which inhibition at 50 µM did it give?
**A.** < 5%

**Q.** How did the inhibition at 50 µM turn out when `CN(C)CCC[C@@]1(c2ccc(F)cc2)OCc2cc(C#N)ccc21` [Escitalopram] was run?
**A.** < 5%

**Q.** With `COC(=O)CCc1ccc(OCC(O)CNC(C)C)cc1` (stereo not shown) [Esmolol] as the molecule, how does the inhibition at 50 µM read?
**A.** < 5%

**Q.** Which inhibition at 50 µM does the source give for `CCOC(=O)c1cnc2c(cnn2CC)c1NN=C(C)C` [Etazolate] here?
**A.** < 5%

**Q.** `COc1cc([C@@H]2c3cc4c(cc3[C@@H](O[C@@H]3O[C@@H]5CO[C@@H](C)O[C@H]5[C@H](O)[C@H]3O)[C@H]3COC(=O)[C@H]23)OCO4)cc(OC)c1O` [Etoposide] was tested. Which inhibition at 50 µM did it give?
**A.** < 5%

**Q.** `C=C1C[C@@H]2[C@H](CC[C@]3(C)C(=O)CC[C@@H]23)[C@@]2(C)C=CC(=O)C=C12` [Exemestane] was tested. Which inhibition at 50 µM did it give?
**A.** < 5%

**Q.** For `NC(=O)OCC(COC(N)=O)c1ccccc1` [Felbamate], which inhibition at 50 µM is on record?
**A.** < 5%

**Q.** Which inhibition at 50 µM does the source give for `CCOC(=O)C1=C(C)NC(C)=C(C(=O)OC)C1c1cccc(Cl)c1Cl` (stereo not shown) [Felodipine] here?
**A.** 7.9%

**Q.** For `O=C(NCC1CCCCN1)c1cc(OCC(F)(F)F)ccc1OCC(F)(F)F` (stereo not shown) [Flecainide], which inhibition at 50 µM is on record?
**A.** < 5%

**Q.** `O=C(O)c1ccccc1Nc1cccc(C(F)(F)F)c1` [Flufenamic acid] was tested. Which inhibition at 50 µM did it give?
**A.** < 5%

**Q.** `Fc1ccc(C(c2ccc(F)cc2)N2CCN(C/C=C/c3ccccc3)CC2)cc1` [Flunarizine-2HCl] was tested. Which inhibition at 50 µM did it give?
**A.** < 5%

**Q.** Which inhibition at 50 µM does the source give for `OCCN1CCN(CCCN2c3ccccc3Sc3ccc(C(F)(F)F)cc32)CC1` [Fluphenazine 2HCl] here?
**A.** < 5%

**Q.** With `O=C1NCN(c2ccccc2)C12CCN(CCCC(c1ccc(F)cc1)c1ccc(F)cc1)CC2` [Fluspirilene] as the molecule, how does the inhibition at 50 µM read?
**A.** < 5%

**Q.** With `CC(C)n1c(/C=C/[C@H](O)C[C@H](O)CC(=O)O)c(-c2ccc(F)cc2)c2ccccc21` [Fluvastatin Na] as the molecule, how does the inhibition at 50 µM read?
**A.** < 5%

**Q.** Which inhibition at 50 µM does the source give for `CCC(=O)O[C@@H](O[P@](=O)(CCCCc1ccccc1)CC(=O)N1C[C@H](C2CCCCC2)C[C@H]1C(=O)O)C(C)C` [Fosinopril] here?
**A.** < 5%

**Q.** With `C[C@]12CC[C@@H]3c4ccc(O)cc4C[C@@H](CCCCCCCCC[S+]([O-])CCCC(F)(F)C(F)(F)F)[C@H]3[C@@H]1CC[C@@H]2O` (stereo partly shown) [Fulvestrant] as the molecule, how does the inhibition at 50 µM read?
**A.** < 5%

**Q.** How did the inhibition at 50 µM turn out when `CO[C@@H]1[C@H](OC(=O)/C=C/C=C/C=C/C=C/C(=O)O)CC[C@]2(CO2)[C@H]1[C@@]1(C)O[C@@H]1CC=C(C)C` [Fumagillin] was run?
**A.** < 5%

**Q.** For `Cc1nc2c([nH]1)c(=O)n(C)c(=O)n2Cc1ccco1` [Furafylline], which inhibition at 50 µM is on record?
**A.** < 5%

**Q.** `NCC1(CC(=O)O)CCCCC1` [Gabapentin] was tested. Which inhibition at 50 µM did it give?
**A.** < 5%

**Q.** How did the inhibition at 50 µM turn out when `Nc1ccn([C@@H]2O[C@H](CO)[C@@H](O)C2(F)F)c(=O)n1` [Gemcitabine HCl] was run?
**A.** 21.5%

**Q.** With `C#C[C@]1(O)CC[C@H]2[C@@H]3CCC4=CC(=O)CCC4=C3C=C[C@@]21CC` [Gestrinone] as the molecule, how does the inhibition at 50 µM read?
**A.** < 5%
